How the values were obtained:
Format in all cases: in vivo
[1] = system: human HT29 colon tumour xenografts; assay: HT29 xenograft efficacy study; settings: AZD2171 1.5 mg/kg/day p.o. d 0-27, 3.19.3 10 mg/kg i.p. day 0, 3, 7, 10, 14, 17, 21 and 24
Description: The efficacy of mAb 3.19.3 in combination with AZD2171 was evaluated in human HT29 xenografts. Briefly, 5×10^6 HT29 tumour cells in 0.1 ml of serum free Roswell Park Memorial Institute (RPMI)-1640 medium were injected subcutaneously into the flanks of 60 athymic (nu/nu genotype) mice. When tumours reached a volume of 200 to 400 mm^3 (9-10 days), mice were randomized into groups (8 per group) and treatment started (day 0).
The control group (Group 1) received a daily oral (p.o.) administration of vehicle only for 28 consecutive days (day 0-27). Group 2 treatment consisted of a daily p.o. administration of AZD2171 alone at 1.5 mg/kg/administration for 28 consecutive days (day 0-27). AZD2171 was prepared as a suspension in 1% polysorbate 80 (i.e. a 1% (v/v) solution of polyoxyethylene (20) sorbitan mono-oleate in deionised water). […]
Tumour volumes (mm^3) were assessed at least twice weekly by bilateral Vernier caliper measurement and, taking length to be the longest diameter across the tumor and width the corresponding perpendicular, calculated using the formula (π/6)×(length×width)×√ (length×width). Growth inhibition from the start of treatment was assessed by comparison of the differences in tumor volume between control and treated groups. […] For all mice, the tumours were excised and weights recorded upon termination of the study.

[2] = system: A431 human tumour xenografts; assay: A431 xenograft efficacy study (Study A); settings: 3.19.3 10 mg/kg 2×wk i.p., VTKI 3 mg/kg/day p.o.
Description: (§1) The anti-tumor activity of monoclonal antibody 3.19.3 in combination with the VTKI 4-(4-fluoro-2-methylindol-5-yloxy)-6-methoxy-7-(3-piperidinopropoxy)quinazoline was evaluated in a xenograft model of human skin epidermoid carcinoma (Study A) and in a model of colorectal cancer (Study B) by using the A431 and Colo205 cell lines respectively.
(§2) A431 and Colo205 cells were cultured in flasks as routine until the cells reached sub-confluence. Immunodeficient 6-8 week old female mice (Ncr/nu/nu) were used. The cells were harvested and suspended in Matrigel. A cell suspension containing 1 to 5×10^6 cells was injected subcutaneously into the flank of the mice. The mice were randomized into different groups, each containing 10-15 mice. When the tumour volume reached 200 mm^3, the mice were randomized in each groups and the treatments were initiated. mAb 3.19.3 10 mg/kg in saline was injected intraperitoneally, twice per week for 2 weeks. 4-(4-fluoro-2-methylindol-5-yloxy)-6-methoxy-7-(3-piperidinopropoxy)quinazoline was treated peroral daily at doses ranging from 1.5 to 6 mg/kg in water containing 1% Tween80. The dimensions of each tumor were measured twice per week. The volume of the tumor was calculated as: Volume=Length×(Width)^2×0.5 (cm^3).

[3] = system: human Colo205 colon tumour xenografts; assay: Colo205 xenograft efficacy study (Study B); settings: 3.19.3 10 mg/kg 2×wk i.p., VTKI 6 mg/kg/day p.o.
Description: as §1, §2

[4] = system: human LoVo colon tumour xenografts; settings: 3.19.3 10 mg/kg 2×wk i.p., Zactima 50 mg/kg/day p.o.
Description: The anti-tumor activity of monoclonal antibody 3.19.3 was evaluated in the LoVo xenograft model of colorectal cancer. Briefly, LoVo cells were cultured in flasks as routine until the cells reached sub-confluence. Immunodeficient 8 week old male NCr nude mice were used. Cell suspensions containing 3×10^6 cells were injected subcutaneously into the right flank of the mice, and after the tumour volume reached 200 mm^3, the mice were randomized in groups and the treatments were initiated. mAb 3.19.3 10 mg/kg in saline was injected intraperitoneally, twice per week for 2 weeks. Zactima™ was treated peroral daily at doses ranging from 25 to 50 mg/kg in water containing 1% Tween80. The dimensions of each tumor were measured twice per week. The volume of the tumor was calculated as: Volume=Length×(Width)^2×0.5 (cm^3).

COc1cc2c(Oc3ccc4[nH]c(C)cc4c3F)ncnc2cc1OCCCN1CCCC1 [AZD2171, reference compound]
Inhibition of Control Tumour Growth Day 28 [1]: 55%

COc1cc2c(Oc3ccc4[nH]c(C)cc4c3F)ncnc2cc1OCCCN1CCCCC1 [4-(4-fluoro-2-methylindol-5-yloxy)-6-methoxy-7-(3-piperidinopropoxy)quinazoline, reference compound]
% tumor growth inhibition [2]: 69% | % inhibition [3]: 57%

COc1cc2c(Nc3ccc(Br)cc3F)ncnc2cc1OCC1CCN(C)CC1 [Zactima™, reference compound]
tumour inhibition [4]: 46%
